Results from ChEMBL document CHEMBL4265931, “Identification of dual Sigma1 receptor modulators/acetylcholinesterase inhibitors with antioxidant and neurotrophic properties, as neuroprotective agents” (Eur J Med Chem, 2018).

What was measured:
[1] = target: Sigma non-opioid intracellular receptor 1 (Cavia porcellus, UniProt Q60492); assay: Displacement of [3H](+)-pentazocine from S1R in guinea pig brain cortex membranes after 120 mins by scintillation counting assay; assay type: cell membranes
[2] = target: T1, Sigma intracellular receptor 2 (Rattus norvegicus, UniProt Q5U3Y7); assay: Displacement of [3H]-DTG from S2R in rat liver membranes after 120 mins by scintillation counting assay; assay type: cell membranes, Membrane
T1 sequence (Q5U3Y7 whole entry): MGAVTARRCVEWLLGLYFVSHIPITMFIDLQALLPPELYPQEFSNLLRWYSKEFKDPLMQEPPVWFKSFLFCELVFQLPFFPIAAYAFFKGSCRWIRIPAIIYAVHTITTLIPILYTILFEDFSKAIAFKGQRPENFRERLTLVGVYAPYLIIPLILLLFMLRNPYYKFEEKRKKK

[3] = Selectivity ratio of Ki for S2R in rat liver membranes to Ki for S1R in guinea pig brain cortex membranes; assay type: cell membranes
[4] = Displacement of [3H]-ifenprodil from GluN1a/GluN2B (unknown origin) expressed in mouse L(tk-) cell membranes after 120 mins by scintillation counting analysis; set-up: species or system Homo sapiens
[5] = Antioxidant activity assessed as DPPH free radical scavenging at 465 uM after 20 mins by UV-Vis spectrophotometric analysis relative to control; assay type: functional
SH-SY5Y [6] = assay: Cytotoxicity against human SH-SY5Y cells assessed as reduction in cell viability after 24 hrs by MTS assay; assay type: cell-based; settings: human, sh-sy5y
SH-SY5Y [7] = assay: Cytotoxicity against human SH-SY5Y cells assessed as reduction in cell viability after 48 hrs by MTS assay; assay type: cell-based; settings: human, sh-sy5y
in vitro [8] = settings: human, SH-SY5Y cells
Description: Cytotoxicity against human SH-SY5Y cells assessed as cell viability at 10 uM after 24 hrs by MTS assay relative to control

in vitro [9] = settings: human, SH-SY5Y cells; remark: listed apart in the source
in vitro [10] = settings: human, SH-SY5Y cells; remark: listed apart in the source
Description: Cytotoxicity against human SH-SY5Y cells assessed as cell viability at 50 uM after 24 hrs by MTS assay relative to control

in vitro [11] = settings: human, SH-SY5Y cells; remark: listed apart in the source
Description: Cytotoxicity against human SH-SY5Y cells assessed as cell viability at 10 uM after 48 hrs by MTS assay relative to control

in vitro [12] = settings: human, SH-SY5Y cells; remark: listed apart in the source
in vitro [13] = settings: human, SH-SY5Y cells; remark: listed apart in the source
Description: Cytotoxicity against human SH-SY5Y cells assessed as cell viability at 50 uM after 48 hrs by MTS assay relative to control

Acetylcholinesterase = Acetylcholinesterase (Electrophorus electricus, UniProt O42275); assay: Inhibition of electric eel AChE using acetylthiocholine iodide as substrate preincubated for 5 mins followed by substrate addition and measured after 2 mins by Ellman's method
Acetylcholinesterase, sequence (O42275 whole entry): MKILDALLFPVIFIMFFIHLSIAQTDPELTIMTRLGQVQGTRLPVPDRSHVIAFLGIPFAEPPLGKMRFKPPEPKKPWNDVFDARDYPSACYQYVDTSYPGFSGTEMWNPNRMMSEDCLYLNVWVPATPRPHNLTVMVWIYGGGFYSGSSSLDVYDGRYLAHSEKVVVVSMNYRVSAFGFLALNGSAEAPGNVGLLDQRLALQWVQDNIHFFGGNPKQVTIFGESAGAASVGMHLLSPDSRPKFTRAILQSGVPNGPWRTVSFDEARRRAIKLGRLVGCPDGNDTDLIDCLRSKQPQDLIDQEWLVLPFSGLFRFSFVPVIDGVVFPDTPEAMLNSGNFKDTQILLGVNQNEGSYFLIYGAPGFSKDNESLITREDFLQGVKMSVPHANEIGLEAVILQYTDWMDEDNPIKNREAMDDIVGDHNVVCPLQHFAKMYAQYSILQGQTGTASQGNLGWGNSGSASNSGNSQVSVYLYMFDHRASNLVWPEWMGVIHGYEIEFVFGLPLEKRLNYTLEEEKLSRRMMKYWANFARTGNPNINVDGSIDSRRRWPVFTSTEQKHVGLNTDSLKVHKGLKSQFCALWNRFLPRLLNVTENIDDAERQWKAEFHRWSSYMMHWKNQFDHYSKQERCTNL

Sigma non-opioid intracellular receptor 1, sequence (Q60492 whole entry): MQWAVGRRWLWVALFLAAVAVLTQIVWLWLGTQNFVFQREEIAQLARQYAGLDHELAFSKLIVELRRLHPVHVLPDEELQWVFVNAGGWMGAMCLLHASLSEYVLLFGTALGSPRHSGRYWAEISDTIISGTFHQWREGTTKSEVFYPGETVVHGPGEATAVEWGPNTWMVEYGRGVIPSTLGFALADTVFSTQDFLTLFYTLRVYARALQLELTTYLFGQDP

O=C(CCN1CCC(Cc2ccccc2)CC1)c1ccc(-c2ccccc2)cc1
Ki [1]: 0.167 µM | Ki [2]: 3.9 µM | Ratio Ki [3]: 23.4 | Ki [4]: > 1 µM

COc1ccc(C(=O)CCN2CCCCC2)cc1.Cl
Ki [1]: 0.0079 µM | Ki [2]: 2.1 µM | Ratio Ki [3]: 256 | Ki [4]: 1.7 µM | Activity [5]: 14.4% | Activity (SH-SY5Y [6]): Dose-dependent effect | Activity (SH-SY5Y [7]): Dose-dependent effect | viability at 24 h, 10 µM (in vitro [8]): 119% | viability at 24 h, 25 µM (in vitro [9]): 86% | viability at 24 h, 50 µM (in vitro [10]): 63% | viability at 48 h, 10 µM (in vitro [11]): 104% | viability at 48 h, 25 µM (in vitro [12]): 49.4% | viability at 48 h, 50 µM (in vitro [13]): 43.4%

O=C(CCN1CCCCC1)c1ccccc1
Ki [1]: 0.171 µM | Ki [2]: 0.749 µM | Ratio Ki [3]: 4.4 | Ki [4]: > 1 µM

Cl.O=C(CCCN1CCC(Cc2ccccc2)CC1)c1ccccc1
Ki [1]: 0.009 µM | Ki [2]: 0.047 µM | Ratio Ki [3]: 5.2 | IC50 (Acetylcholinesterase): 13.1 µM | Ki [4]: 0.039 µM | Activity [5]: 29.3% | Activity (SH-SY5Y [6]): Dose-dependent effect | Activity (SH-SY5Y [7]): Dose-dependent effect | viability at 24 h, 10 µM (in vitro [8]): 100% | viability at 24 h, 25 µM (in vitro [9]): 100% | viability at 24 h, 50 µM (in vitro [10]): 87% | viability at 48 h, 10 µM (in vitro [11]): 96% | viability at 48 h, 25 µM (in vitro [12]): 95% | viability at 48 h, 50 µM (in vitro [13]): 54%

Cl.O=C(CCN1CCOCC1)c1ccc2ccccc2c1
Ki [2]: > 1 µM | Ki [4]: > 1 µM | Activity [5]: 8.14% | Activity (SH-SY5Y [6]): Dose-dependent effect | Activity (SH-SY5Y [7]): Dose-dependent effect | viability at 24 h, 10 µM (in vitro [8]): 77% | viability at 24 h, 25 µM (in vitro [9]): 48% | viability at 24 h, 50 µM (in vitro [10]): 49% | viability at 48 h, 10 µM (in vitro [11]): 79% | viability at 48 h, 25 µM (in vitro [12]): 38% | viability at 48 h, 50 µM (in vitro [13]): 37%

COc1ccc(C(=O)CCCN2CCC(Cc3ccccc3)CC2)cc1.Cl
Ki [1]: 0.031 µM | Ki [2]: 0.111 µM | Ratio Ki [3]: 6.8 | IC50 (Acetylcholinesterase): 12.8 µM | Ki [4]: 0.096 µM | Activity [5]: 12.9% | Activity (SH-SY5Y [6]): Dose-dependent effect | Activity (SH-SY5Y [7]): Dose-dependent effect | viability at 24 h, 10 µM (in vitro [8]): 100% | viability at 24 h, 25 µM (in vitro [9]): 100% | viability at 24 h, 50 µM (in vitro [10]): 84.4% | viability at 48 h, 10 µM (in vitro [11]): 97.3% | viability at 48 h, 25 µM (in vitro [12]): 87% | viability at 48 h, 50 µM (in vitro [13]): 61%

Cl.O=C(CCN1CCCCC1)c1ccc2ccccc2c1
Ki [2]: 0.178 µM | Ratio Ki [3]: 81 | Ki [4]: > 1 µM | Activity [5]: 18.3% | Activity (SH-SY5Y [6]): Dose-dependent effect | Activity (SH-SY5Y [7]): Dose-dependent effect | viability at 24 h, 10 µM (in vitro [8]): 98.6% | viability at 24 h, 25 µM (in vitro [9]): 66.4% | viability at 24 h, 50 µM (in vitro [10]): 65.4% | viability at 48 h, 10 µM (in vitro [11]): 70.3% | viability at 48 h, 25 µM (in vitro [12]): 42% | viability at 48 h, 50 µM (in vitro [13]): 40%

COc1ccc2cc(C(=O)CCCN3CCC(Cc4ccccc4)CC3)ccc2c1
Ki [1]: 0.068 µM | Ki [2]: 0.107 µM | Ratio Ki [3]: 1.6 | IC50 (Acetylcholinesterase): 4.28 µM | Ki [4]: 0.02 µM

Cl.O=C(CCN1CCOCC1)c1ccc(-c2ccccc2)cc1
Ki [2]: > 1 µM | Ki [4]: 0.723 µM | Activity [5]: 22.1% | Activity (SH-SY5Y [6]): Dose-dependent effect | Activity (SH-SY5Y [7]): Dose-dependent effect | viability at 24 h, 10 µM (in vitro [8]): 100% | viability at 24 h, 25 µM (in vitro [9]): 73% | viability at 24 h, 50 µM (in vitro [10]): 83.3% | viability at 48 h, 10 µM (in vitro [11]): 100% | viability at 48 h, 25 µM (in vitro [12]): 66% | viability at 48 h, 50 µM (in vitro [13]): 62.4%

COc1ccc2cc(C(=O)CN3CCC(Cc4ccccc4)CC3)ccc2c1
Ki [1]: 0.286 µM | Ki [2]: 1.4 µM | Ratio Ki [3]: 4.9 | Ki [4]: > 1 µM

COc1cccc(C(=O)CN2CCC(Cc3ccccc3)CC2)c1
Ki [1]: 0.131 µM | Ki [2]: 1.5 µM | Ratio Ki [3]: 11.5 | IC50 (Acetylcholinesterase): 32.8 µM | Ki [4]: 0.011 µM

O=C(CCN1CCC(Cc2ccccc2)CC1)c1ccc2ccccc2c1
Ki [1]: 0.211 µM | Ki [2]: 6.2 µM | Ratio Ki [3]: 29.4 | IC50 (Acetylcholinesterase): 18.6 µM | Ki [4]: > 1 µM

Cl.O=C(CCN1CCC(Cc2ccccc2)CC1)c1ccccc1
Ki [1]: 0.016 µM | Ki [2]: 5.8 µM | Ratio Ki [3]: 363 | Ki [4]: 0.039 µM | Activity [5]: 25.9% | Activity (SH-SY5Y [6]): Dose-dependent effect | Activity (SH-SY5Y [7]): Dose-dependent effect | viability at 24 h, 10 µM (in vitro [8]): 93% | viability at 24 h, 25 µM (in vitro [9]): 48% | viability at 24 h, 50 µM (in vitro [10]): 49% | viability at 48 h, 10 µM (in vitro [11]): 106% | viability at 48 h, 25 µM (in vitro [12]): 44% | viability at 48 h, 50 µM (in vitro [13]): 36%

Cl.O=C(CCCN1CCC(Cc2ccccc2)CC1)c1ccc2ccccc2c1
Ki [1]: 0.024 µM | Ki [2]: 0.058 µM | Ratio Ki [3]: 2.4 | Ki [4]: 0.026 µM | Activity [5]: 31.6% | Activity (SH-SY5Y [6]): Dose-dependent effect | Activity (SH-SY5Y [7]): Dose-dependent effect | viability at 24 h, 10 µM (in vitro [8]): 80.2% | viability at 24 h, 25 µM (in vitro [9]): 86% | viability at 24 h, 50 µM (in vitro [10]): 86% | viability at 48 h, 10 µM (in vitro [11]): 77% | viability at 48 h, 25 µM (in vitro [12]): 57% | viability at 48 h, 50 µM (in vitro [13]): 61%

O=C(CCN1CCOCC1)c1ccccc1
Ki [1]: 0.606 µM | Ki [2]: > 1 µM | Ki [4]: > 1 µM

O=C(CCCN1CCC(Cc2ccccc2)CC1)c1ccc(-c2ccccc2)cc1
Ki [1]: 0.135 µM | Ki [2]: 0.704 µM | Ratio Ki [3]: 5.2 | IC50 (Acetylcholinesterase): 13.9 µM | Ki [4]: 0.096 µM

O=C(CN1CCC(Cc2ccccc2)CC1)c1ccc(-c2ccccc2)cc1
Ki [2]: > 1 µM | Ki [4]: > 1 µM

O=C(CN1CCC(Cc2ccccc2)CC1)c1ccccc1
Ki [1]: 0.075 µM | Ki [2]: 2.3 µM | Ratio Ki [3]: 30.7 | Ki [4]: 0.215 µM

CC(C(O)c1ccc(O)cc1)N1CCC(Cc2ccccc2)CC1 (stereo unspecified) [IFENPRODIL]
Ki [4]: 0.01 µM

COc1ccc(C(=O)CCN2CCOCC2)cc1
Ki [1]: 0.301 µM | Ki [2]: > 1 µM | Ki [4]: > 1 µM
